pEC50, pKi: −log10 of the molar value. Where two headings read alike, the source gives them in different places.
Legend:
[1] = target: T1, CHK1 (kinase domain) (Homo sapiens, UniProt O14757); assay: CHK1 Ki determination, spectrophotometric coupled (pyruvate kinase/lactate dehydrogenase) assay; format: biochemical; conditions: CHK-1 kinase domain; for pKi: 150 uM ATP, 125 uM Syntide 2; for percent inhibition (where no Ki data is available): inhibitor concentration not given
T1 construct: a solution containing 1 nM of CHK1 (kinase domain)
T1 sequence (O14757 9-265 limits assumed): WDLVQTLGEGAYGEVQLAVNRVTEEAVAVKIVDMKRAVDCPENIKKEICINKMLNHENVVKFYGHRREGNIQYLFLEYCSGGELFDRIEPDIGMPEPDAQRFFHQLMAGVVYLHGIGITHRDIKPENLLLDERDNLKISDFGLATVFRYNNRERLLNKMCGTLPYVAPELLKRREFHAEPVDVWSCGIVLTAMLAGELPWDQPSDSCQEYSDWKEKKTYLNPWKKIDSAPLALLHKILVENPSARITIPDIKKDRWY
Summary of the method: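 The CHK1 kinase domain was pre-incubated with compound for 15 min, and the reaction was started with 125 uM Syntide 2 and 150 uM ATP. ADP formation was coupled through pyruvate kinase/lactate dehydrogenase to NADH oxidation, read as the A340 decrease. Kiapp was fitted with a tight-binding equation that accounts for enzyme concentration and ATP Km; some entries are % inhibition.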

[2] = system: HeLa cells; assay: Histone H3 (Ser10) phosphorylation ELISA, abrogation of camptothecin-induced G2 arrest (CHK-1 cellular assay); format: cell-based; conditions: HeLa cells, camptothecin 8 hrs, then compound with nocodozole 16 hours, read-out: EC50
Method: The Histone H3 phosphorylation ELISA assay detects cells entering mitosis and represents the primary in vitro cell-based assay used to measure the cellular potency of compounds in abrogating the G2 check point induced by DNA damage in HeLa cells or MiaPaCa cells. The candidate substances were assayed for potency in their ability to inhibit camptothecin-induced G2 arrest, as measured by an increase in Histone H3 phosphorylation on Ser10, a marker of entry into mitosis.
Tissue culture plates were seeded with HeLa cells or MiaPaCa Cells and allowed to attach overnight. The cells were then treated with camptothecin to induce DNA damage for 8 hrs. Candidate substances or diluent were then added in the presence of nocodozole for 16 hours. […] The fresh whole cell lysates were then thawed and added to the ELISA plate with shaking for 3 hours. Between all subsequent steps plates were washed 4 times with PBST. Biotinylated phospho Histone H3 (ser10) detection antibody was added for 1 hour, followed by addition of horseradish peroxidase-linked streptavidin secondary antibody for 1 hour. Color development of the antibody was performed with addition of TMB substrate and incubation for 2 minutes on a plate shaker. […] EC50 values were calculated by sigmoid curve fitting using a four-parameter analysis.
Under the “Ki” column, data entries in the format of “%” are percent inhibition data where no Ki data is available. Data entry under the “EC50” column with an * are data obtained using Mia Paca-2 cells rather than HeLa cells. Data is not available where noted as n/a.

Structure (SMILES)	pKi [1]	pEC50 ([2]; Homo sapiens, HeLa)	pEC50 [2]	percent inhibition (where no Ki data is available) [1]
C[C@H]1CC[C@@H](Nc2cncc(-c3cnc4ccc(F)cn34)n2)CN1 [Example 93, 6-(6-fluoroimidazo[1,2-a]pyridin-3-yl)-N-[(3R,6S)-6-methylpiperidin-3-yl]pyrazin-2-amine]	7.05	5.48		
C[C@H]1NCCC[C@H]1Nc1cncc(-c2cnc3ccc(F)cn23)n1 [Example 94, 6-(6-fluoroimidazo[1,2-a]pyridin-3-yl)-N-[(2R,3R)-2-methylpiperidin-3-yl]pyrazin-2-amine]	7.69		6.43	
Cc1cn2c(-c3cncc(N[C@@H]4CCCN[C@H]4C)n3)cnc2s1 [Example 97, 6-(2-methylimidazo[2,1-b][1,3]thiazol-5-yl)-N-[(2S,3R)-2-methylpiperidin-3-yl]pyrazin-2-amine]	8.06		6.82	
CC1(Nc2cncc(-c3cnc4n3CCCC4)n2)CCNC1 (stereo not drawn) [Example 98, N-(3-methylpyrrolidin-3-yl)-6-(5,6,7,8-tetrahydroimidazo[1,2-a]pyridin-3-yl)pyrazin-2-amine]	6.00	≤ 5.00		
CC1(Nc2cncc(-c3cnc4ccccn34)n2)CCNC1 (stereo not drawn) [Example 99, 6-imidazo[1,2-a]pyridin-3-yl-N-(3-methylpyrrolidin-3-yl)pyrazin-2-amine]	7.55	≤ 5.00		
FC(F)[C@@H]1C[C@@H](Nc2cncc(-c3cnn4cc(Cl)ccc34)n2)CN1 [Example 100, 6-(6-chloropyrazolo[1,5-a]pyridin-3-yl)-N-[(3R,5S)-5-(difluoromethyl)pyrrolidin-3-yl]pyrazin-2-amine]	7.84	5.45		
C[C@@H]1NCCC[C@H]1Nc1cncc(-c2cnc3ccccn23)n1 [Example 101, 6-imidazo[1,2-a]pyridin-3-yl-N-[(2S,3R)-2-methylpiperidin-3-yl]pyrazin-2-amine]	7.26	≤ 5.00		
CCc1cn2c(-c3cncc(N[C@@H]4CC[C@H](C)NC4)n3)cnc2s1 [Example 103, 6-(2-ethylimidazo[2,1-b][1,3]thiazol-5-yl)-N-[(3R,6S)-6-methylpiperidin-3-yl]pyrazin-2-amine]	7.58	7.16		
C[C@@H]1NCCC[C@H]1Nc1cncc(-c2cnc3cc(Cl)ccn23)n1 [Example 104, 6-(7-chloroimidazo[1,2-a]pyridin-3-yl)-N-[(2S,3R)-2-methylpiperidin-3-yl]pyrazin-2-amine]	7.44	≤ 5.00		
CCc1cn2c(-c3cncc(N[C@@H]4CC[C@@H](C)NC4)n3)cnc2s1 [Example 106, 6-(2-ethylimidazo[2,1-b][1,3]thiazol-5-yl)-N-[(3R,6R)-6-methylpiperidin-3-yl]pyrazin-2-amine]	7.66	6.57		
CCc1cn2c(-c3cncc(N[C@@H]4CCCN[C@@H]4C)n3)cnc2s1 [Example 108, 6-(2-ethylimidazo[2,1-b][1,3]thiazol-5-yl)-N-[(2R,3R)-2-methylpiperidin-3-yl]pyrazin-2-amine]	7.99		7.33	
CCc1cn2c(-c3cncc(N[C@@H]4CCCN[C@H]4C)n3)cnc2s1 [Example 109, 6-(2-ethylimidazo[2,1-b][1,3]thiazol-5-yl)-N-[(2S,3R)-2-methylpiperidin-3-yl]pyrazin-2-amine]	7.55		6.72	
CC(C)c1cn2c(-c3cncc(N[C@@H]4CCCN[C@H]4C)n3)cnc2s1 [Example 112, 6-(2-isopropylimidazo[2,1-b][1,3]thiazol-5-yl)-N-[(2S,3R)-2-methylpiperidin-3-yl]pyrazin-2-amine]	7.90	5.95		
Clc1ccc2c(-c3cncc(N[C@@H]4CCNC4)n3)cnn2c1 [Example 113, 6-(6-chloropyrazolo[1,5-a]pyridin-3-yl)-N-[(3R)-pyrrolidin-3-yl]pyrazin-2-amine]		6.99		95.5%^
CC(C)c1cn2c(-c3cncc(N[C@@H]4CC[C@H](C)NC4)n3)cnc2s1 [Example 114, 6-(2-isopropylimidazo[2,1-b][1,3]thiazol-5-yl)-N-[(3R,6S)-6-methylpiperidin-3-yl]pyrazin-2-amine]	7.91	6.64		
C[C@@H]1CNC[C@@H]1Nc1cncc(-c2cnn3ccccc23)n1 [Example 119, N-[(3R,4R)-4-methylpyrrolidin-3-yl]-6-pyrazolo[1,5-a]pyridin-3-ylpyrazin-2-amine]	8.27	7.57		
c1cnc2c(-c3cncc(N[C@@H]4CCNC4)n3)cnn2c1 [Example 121, 6-pyrazolo[1,5-a]pyrimidin-3-yl-N-[(3R)-pyrrolidin-3-yl]pyrazin-2-amine]		≤ 5.00		16.5%^
CCC(COC)Oc1ccn2c(-c3cncc(N[C@@H]4CCCNC4)n3)cnc2c1 (stereo partly drawn) [Example 122, 6-{7-[1-(methoxymethyl)propoxy]imidazo[1,2-a]pyridin-3-yl}-N-[(3R)-piperidin-3-yl]pyrazin-2-amine]	7.96	5.97		
Fc1ccc2ncc(-c3cncc(N[C@@H]4C[C@@H]5CN[C@H]4C5)n3)n2c1 [Example 126, (1S,4R,6R)-N-[6-(6-fluoroimidazo[1,2-a]pyridin-3-yl)pyrazin-2-yl]-2-azabicyclo[2.2.1]heptan-6-amine]	8.23	6.85		
CC(C)c1cn2c(-c3cncc(N[C@@H]4C[C@@H]5CN[C@H]4C5)n3)cnc2s1 [Example 127, (1S,4R,6R)-N-[6-(2-isopropylimidazo[2,1-b][1,3]thiazol-5-yl)pyrazin-2-yl]-2-azabicyclo[2.2.1]heptan-6-amine]	8.05	5.97		

Other lines, results leading:

pKi [1]	pEC50 ([2]; Homo sapiens, HeLa)	pEC50 [2]	percent inhibition (where no Ki data is available) [1]	Structure (SMILES)
8.57	7.61			Cc1cn2c(-c3cncc(N[C@@H]4CCCN[C@@H]4C)n3)cnc2s1 [Example 96, 6-(2-methylimidazo[2,1-b][1,3]thiazol-5-yl)-N-[(2R,3R)-2-methylpiperidin-3-yl]pyrazin-2-amine]
8.51	≤ 5.00			C[C@H]1NCCC[C@H]1Nc1cncc(-c2cnc3cc(Cl)ccn23)n1 [Example 102, 6-(7-chloroimidazo[1,2-a]pyridin-3-yl)-N-[(2R,3R)-2-methylpiperidin-3-yl]pyrazin-2-amine]
8.55	7.50			CCc1cn2c(-c3cncc(N[C@@H]4CCCNC4)n3)cnc2s1 [Example 107, 6-(2-ethylimidazo[2,1-b][1,3]thiazol-5-yl)-N-[(3R)-piperidin-3-yl]pyrazin-2-amine]
8.44		7.65		CC(C)c1cn2c(-c3cncc(N[C@@H]4CCCN[C@@H]4C)n3)cnc2s1 [Example 111, 6-(2-isopropylimidazo[2,1-b][1,3]thiazol-5-yl)-N-[(2R,3R)-2-methylpiperidin-3-yl]pyrazin-2-amine]
8.48	6.77			c1ccn2ncc(-c3cncc(N[C@@H]4CCNC4)n3)c2c1 [Example 115, 6-pyrazolo[1,5-a]pyridin-3-yl-N-[(3R)-pyrrolidin-3-yl]pyrazin-2-amine]
8.71	7.69			C[C@@H]1CNC[C@@H]1Nc1cncc(-c2cnn3cc(Cl)ccc23)n1 [Example 116, 6-(6-chloropyrazolo[1,5-a]pyridin-3-yl)-N-[(3R,4R)-4-methylpyrrolidin-3-yl]pyrazin-2-amine]
9.10	7.48			Clc1ccc2c(-c3cncc(N[C@@H]4CCCNC4)n3)cnn2c1 [Example 117, 6-(6-chloropyrazolo[1,5-a]pyridin-3-yl)-N-[(3R)-piperidin-3-yl]pyrazin-2-amine]
8.28	5.95			CC(Oc1ccn2c(-c3cncc(N[C@@H]4CCCNC4)n3)cnc2c1)C(F)(F)F (stereo partly drawn) [Example 118, N-[(3R)-piperidin-3-yl]-6-[7-(2,2,2-trifluoro-1-methylethoxy)imidazo[1,2-a]pyridin-3-yl]pyrazin-2-amine]
8.64	≤ 5.00			COc1ccn2c(-c3cncc(N[C@@H]4C[C@@H]5CN[C@H]4C5)n3)cnc2c1 [Example 124, (1S,4R,6R)-N-[6-(7-methoxyimidazo[1,2-a]pyridin-3-yl)pyrazin-2-yl]-2-azabicyclo[2.2.1]heptan-6-amine]
8.75	6.76			CCc1cn2c(-c3cncc(N[C@@H]4C[C@@H]5CN[C@H]4C5)n3)cnc2s1 [Example 128, (1S,4R,6R)-N-[6-(2-ethylimidazo[2,1-b][1,3]thiazol-5-yl)pyrazin-2-yl]-2-azabicyclo[2.2.1]heptan-6-amine]
